Test results reported in US20100298141A1, “SUBSTITUTED PYRIDINE N-OXIDE HERBICIDES” (E. I. DU PONT DE NEMOURS AND COMPANY, priority 2007, published 2010).

Columns and labels:
downy brome = assay: Test C pre-/postemergence test; format: in vivo, Bromus tectorum
Method in brief: (§1)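 Test chemicals were formulated with surfactant in a non-phytotoxic solvent and sprayed both on freshly planted seeds (preemergence) and on 1- to 4-leaf plants of 2–18 cm (postemergence). Flooded-paddy pots received compound directly into 3 cm of standing water, maintained for the test.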

blackgrass = assay: Test C pre-/postemergence test; format: in vivo, Alopecurus myosuroides
Method in brief: as §1

lambsquarters = assay: Test C pre-/postemergence test; format: in vivo, Chenopodium album; conditions: Postemergence; for Plant response rating, Lambsquarters: scale 0 to 100, 0 no effect, 100 complete control
Method in brief: as §1

common ragweed = assay: Test C pre-/postemergence test; format: in vivo, Ambrosia elation
Method in brief: as §1

velvetleaf [1] = assay: Test C pre-/postemergence test; format: in vivo, Abutilon theophrasti
Method in brief: as §1

velvetleaf [2] = assay: Test A pre-/postemergence greenhouse test; format: in vivo, Abutilon theophrasti; conditions: for Plant response rating, Velvetleaf: 0 to 100 scale where 0 is no effect and 100 is complete control; for Velvetleaf plant response rating: 0 to 100 scale
Method in brief: (§2)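 Two application timings were run side by side in the greenhouse. Before emergence, compound went onto the soil surface of loam–sand pots as a directed spray; after emergence, plants at 2–10 cm and the one- to two-leaf stage were treated. Visual injury versus controls was rated at approximately day ten.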

barnyardgrass [3] = assay: Test A pre-/postemergence greenhouse test; format: in vivo, Echinochloa crus-galli; conditions: for Plant response rating, Barnyardgrass: 0 to 100 scale where 0 is no effect and 100 is complete control; for Barnyardgrass plant response rating: 0 to 100 scale
Method in brief: as §2

soybean = assay: Test C pre-/postemergence test; format: in vivo, Glycine max
Method in brief: as §1

crabgrass = assay: Test A pre-/postemergence greenhouse test; format: in vivo, Digitaria sanguinalis; conditions: for Plant response rating, Crabgrass, Large: 0 to 100 scale where 0 is no effect and 100 is complete control; for Crabgrass, Large plant response rating: 0 to 100 scale
Method in brief: as §2

pigweed = assay: Test C pre-/postemergence test; format: in vivo, Amaranthus retroflexus
Method in brief: as §1

barnyardgrass [4] = assay: Test C flooded paddy test; format: in vivo, Echinochloa crus-galli; conditions: Flood
Method in brief: (§3)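 Greenhouse pots flooded to 3 cm above soil at time of treatment received compound via the water, which stayed at that level.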

duck salad = assay: Test C flooded paddy test; format: in vivo, Heteranthera limosa; conditions: Flood
Method in brief: as §3

giant foxtail = assay: Test A pre-/postemergence greenhouse test; format: in vivo, Setaria faberi; conditions: for Plant response rating, Foxtail, Giant: 0 to 100 scale where 0 is no effect and 100 is complete control; for Foxtail, Giant plant response rating: 0 to 100 scale
Method in brief: as §2

woolly cupgrass = assay: Test C pre-/postemergence test; format: in vivo, Eriochloa villosa
Method in brief: as §1

green foxtail = assay: Test C pre-/postemergence test; format: in vivo, Setaria viridis
Method in brief: as §1

Surinam grass = assay: Test C pre-/postemergence test; format: in vivo, Brachiaria decumbens
Method in brief: as §1

[5] = 62 g ai/ha, Preemergence, scale 0 to 100
[6] = 125 g ai/ha, preemergence, scale 0 (no effect) to 100 (complete control)
[7] = Postemergence, 62 g ai/ha, scale 0 to 100, 0 no effect, 100 complete control
[8] = Postemergence, 125 g ai/ha, scale 0 to 100, 0 no effect, 100 complete control
[9] = Postemergence, 250 g ai/ha, scale 0 to 100, 0 no effect, 100 complete control
[10] = Preemergence, 31 g ai/ha, scale 0 to 100 (0 no effect, 100 complete control)
[11] = preemergence, 250 g ai/ha, scale 0 (no effect) to 100 (complete control)
[12] = Postemergence, 500 g ai/ha, 0 is no effect, 100 is complete control
[13] = Preemergence, 125 g ai/ha, 0 no effect, 100 complete control
[14] = 62 g ai/ha, scale 0 to 100 (0 no effect, 100 complete control)
[15] = 250 g ai/ha, scale 0 to 100, 0 no effect, 100 complete control, 13 to 15 days

CCn1nc(C(F)(F)F)c(C[S+]([O-])c2cccc[n+]2[O-])c1OCC(F)(F)F (racemic) [Compound 65]
Bromegrass, Downy plant response rating (downy brome; [5]): 100
Bromegrass, Downy plant response rating (downy brome; [6]): 100
Plant response rating (0 to 100), Bromegrass, Downy (downy brome; Postemergence, 31 g ai/ha): 0
Plant response rating, Bromegrass, Downy (downy brome; [7]): 10
Plant response rating, Bromegrass, Downy (downy brome; [8]): 30
Plant response rating, Bromegrass, Downy (downy brome; [9]): 75
Plant response rating, Bromegrass, Downy (downy brome; [10]): 65
Bromegrass, Downy plant response rating (downy brome; [11]): 100
Blackgrass plant response rating (blackgrass; [5]): 100
Blackgrass plant response rating (blackgrass; [6]): 100
Plant response rating (0 to 100), Blackgrass (blackgrass; Postemergence, 31 g ai/ha): 0
Plant response rating, Blackgrass (blackgrass; [7]): 30
Plant response rating, Blackgrass (blackgrass; [9]): 30
Plant response rating, Blackgrass (blackgrass; [10]): 100
Blackgrass plant response rating (blackgrass; [11]): 100
Plant response rating (0 to 100), Lambsquarters (lambsquarters; 31 g ai/ha): 0
Plant response rating, Lambsquarters (lambsquarters; 62 g ai/ha): 0
Plant response rating, Lambsquarters (lambsquarters; 125 g ai/ha): 50
Plant response rating, Lambsquarters (lambsquarters; 250 g ai/ha): 50
Ragweed plant response rating (common ragweed; [5]): 100
Ragweed plant response rating (common ragweed; [6]): 100
Plant response rating (0 to 100), Ragweed (common ragweed; Postemergence, 31 g ai/ha): 0
Plant response rating (0 to 100), Ragweed (common ragweed; Postemergence, 62 g ai/ha): 0
Plant response rating, Ragweed (common ragweed; [8]): 0
Plant response rating, Ragweed (common ragweed; [9]): 0
Plant response rating, Ragweed (common ragweed; [10]): 100
Ragweed plant response rating (common ragweed; [11]): 100
Velvetleaf plant response rating (velvetleaf [1]; [5]): 60
Velvetleaf plant response rating (velvetleaf [1]; [6]): 100
Plant response rating (0 to 100), Velvetleaf (velvetleaf [1]; Postemergence, 31 g ai/ha): 0
Plant response rating (0 to 100), Velvetleaf (velvetleaf [1]; Postemergence, 62 g ai/ha): 0
Plant response rating, Velvetleaf (velvetleaf [1]; [8]): 30
Plant response rating, Velvetleaf (velvetleaf [1]; [9]): 40
Plant response rating, Velvetleaf (velvetleaf [1]; [10]): 55
Velvetleaf plant response rating (velvetleaf [1]; [11]): 100
Plant response rating, Velvetleaf (velvetleaf [2]; Postemergence, 125 g ai/ha): 80
Velvetleaf plant response rating (velvetleaf [2]; [12]): 90
Velvetleaf plant response rating (velvetleaf [2]; [13]): 100
Plant response rating, Velvetleaf (velvetleaf [2]; Preemergence, 500 g ai/ha): 100
Plant response rating, Barnyardgrass (barnyardgrass [3]; Postemergence, 125 g ai/ha): 90
Barnyardgrass plant response rating (barnyardgrass [3]; [12]): 90
Barnyardgrass plant response rating (barnyardgrass [3]; [13]): 80
Plant response rating, Barnyardgrass (barnyardgrass [3]; Preemergence, 500 g ai/ha): 100
Plant response rating (0 to 100), Soybean (soybean; Postemergence, 31 g ai/ha): 20
Plant response rating (0 to 100), Soybean (soybean; Postemergence, 62 g ai/ha): 50
Plant response rating, Soybean (soybean; [8]): 60
Plant response rating, Soybean (soybean; [9]): 90
Plant response rating, Soybean (soybean; [10]): 5
Plant response rating, Crabgrass, Large (crabgrass; Postemergence, 125 g ai/ha): 80
Crabgrass, Large plant response rating (crabgrass; [12]): 90
Crabgrass, Large plant response rating (crabgrass; [13]): 90
Plant response rating, Crabgrass, Large (crabgrass; Preemergence, 500 g ai/ha): 100
Pigweed plant response rating (pigweed; [5]): 85
Plant response rating (0 to 100), Pigweed (pigweed; Postemergence, 31 g ai/ha): 0
Plant response rating (0 to 100), Pigweed (pigweed; Postemergence, 62 g ai/ha): 0
Plant response rating, Pigweed (pigweed; [8]): 0
Plant response rating, Pigweed (pigweed; [9]): 5
Plant response rating, Pigweed (pigweed; [10]): 85
Pigweed plant response rating (pigweed; [11]): 100
Plant response rating, Barnyardgrass (barnyardgrass [4]; [14]): 55
Plant response rating, Barnyardgrass (barnyardgrass [4]; [15]): 85
Plant response rating, Ducksalad (duck salad; [14]): 30
Plant response rating, Ducksalad (duck salad; [15]): 100
Plant response rating, Foxtail, Giant (giant foxtail; Postemergence, 125 g ai/ha): 90
Foxtail, Giant plant response rating (giant foxtail; [12]): 100
Foxtail, Giant plant response rating (giant foxtail; [13]): 100
Plant response rating, Foxtail, Giant (giant foxtail; Preemergence, 500 g ai/ha): 100
Cupgrass, Woolly plant response rating (woolly cupgrass; [5]): 40
Cupgrass, Woolly plant response rating (woolly cupgrass; [6]): 100
Plant response rating (0 to 100), Cupgrass, Woolly (woolly cupgrass; Postemergence, 31 g ai/ha): 0
Plant response rating, Cupgrass, Woolly (woolly cupgrass; [7]): 0
Plant response rating, Cupgrass, Woolly (woolly cupgrass; [8]): 0
Plant response rating, Cupgrass, Woolly (woolly cupgrass; [9]): 40
Plant response rating, Cupgrass, Woolly (woolly cupgrass; [10]): 40
Cupgrass, Woolly plant response rating (woolly cupgrass; [11]): 100
Foxtail, Green plant response rating (green foxtail; [5]): 100
Foxtail, Green plant response rating (green foxtail; [6]): 100
Plant response rating (0 to 100), Foxtail, Green (green foxtail; Postemergence, 31 g ai/ha): 5
Plant response rating, Foxtail, Green (green foxtail; [7]): 50
Plant response rating, Foxtail, Green (green foxtail; [8]): 80
Plant response rating, Foxtail, Green (green foxtail; [9]): 90
Plant response rating, Foxtail, Green (green foxtail; [10]): 90
Foxtail, Green plant response rating (green foxtail; [11]): 100
Surinam Grass plant response rating (Surinam grass; [5]): 100
Surinam Grass plant response rating (Surinam grass; [6]): 100
Plant response rating (0 to 100), Surinam Grass (Surinam grass; Postemergence, 31 g ai/ha): 0
Plant response rating (0 to 100), Surinam Grass (Surinam grass; Postemergence, 62 g ai/ha): 0
Plant response rating, Surinam Grass (Surinam grass; [8]): 0
Plant response rating, Surinam Grass (Surinam grass; [9]): 25
Plant response rating, Surinam Grass (Surinam grass; [10]): 80
Surinam Grass plant response rating (Surinam grass; [11]): 100
